Data: article PMC4551668 (Microbial Cell Factories, 2015)

Assays:
MPH (Ochr-MPH) [1] = molecular target: MPH (Ochr-MPH) (Ochrobactrum sp. M231, UniProt B2Z3X1, K284Q/K285R); conditions: CHBD-QR; same
Description: (§1) steady-state kinetics, purified enzyme, standard MPH assay on MPH (Ochr-MPH)

MPH (Ochr-MPH) [2] = molecular target: MPH (Ochr-MPH) (Ochrobactrum sp. M231, UniProt B2Z3X1); conditions: CHBD-MPH, tag excised by Kex2; substrate not named, taken from enzyme name and text; assay conditions only by reference
Description: as §1

MPH (Ochr-MPH) [3] = molecular target: MPH (Ochr-MPH) (Ochrobactrum sp. M231, UniProt B2Z3X1, K277D/K284Q/K285R); conditions: CHBD-DQR; same
Description: as §1

MPH (Ochr-MPH) (Ochrobactrum sp. M231, UniProt B2Z3X1, K284Q/K285R), sequence (B2Z3X1 entry or part of it K284Q/K285R): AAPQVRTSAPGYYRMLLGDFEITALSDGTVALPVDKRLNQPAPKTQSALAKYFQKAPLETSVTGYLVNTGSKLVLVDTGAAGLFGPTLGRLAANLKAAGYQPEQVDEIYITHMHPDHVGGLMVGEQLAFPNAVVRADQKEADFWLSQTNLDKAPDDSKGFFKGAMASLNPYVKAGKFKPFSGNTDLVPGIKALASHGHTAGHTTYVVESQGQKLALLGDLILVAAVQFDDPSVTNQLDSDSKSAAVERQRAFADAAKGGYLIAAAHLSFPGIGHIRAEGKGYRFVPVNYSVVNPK
MPH (Ochr-MPH) (Ochrobactrum sp. M231, UniProt B2Z3X1, K277D/K284Q/K285R), sequence (B2Z3X1 entry or part of it K277D/K284Q/K285R): as the sequence (B2Z3X1 entry or part of it K284Q/K285R) above, with K242D counted along it
MPH (Ochr-MPH) (Ochrobactrum sp. M231, UniProt B2Z3X1), sequence (B2Z3X1 entry or part of it): as the sequence (B2Z3X1 entry or part of it K284Q/K285R) above, with Q249K, R250K counted along it

SMILES: COP(=S)(OC)Oc1ccc([N+](=O)[O-])cc1 [methyl parathion]
- Km (MPH (Ochr-MPH) [1]): 119 ± 8.26 µM
- Km (MPH (Ochr-MPH) [2]): 86.9 ± 5.85 µM
- Km (MPH (Ochr-MPH) [3]): 168 ± 7.57 µM
